This note sets out measurements from ChEMBL document CHEMBL1142539, “Double edge redox-implications for the interaction between endogenous thiols and copper ions: In vitro studies” (Bioorg Med Chem, 2008).

The test system of data set [1] is Radical scavenging activity. Kind of data set: Antioxidant activity assessed as DPPH radical scavenging activity at 36 uM after 3 mins in presence of Cu2++. Format: functional. For orientation: The DPPH test is a chemical assay of radical scavenging.
The subject of data set [2] is Radical scavenging activity. Kind of data set: Antioxidant activity assessed as DPPH radical scavenging activity at 36 uM after 30 mins in presence of Cu2++. It counts as functional.
Data set [3] can be described thus: Antioxidant activity assessed as reducing capacity of DTNB at 20 uM after 30 mins in presence of Cu2++. Format: functional. The arrangement: scale not given: the % may be the effect or the level left.
Data set [4] in a line: Induction of ascorbic acid oxidation preincubated for 60 mins in presence of Cu2++. It counts as physicochemical. Details: concentration or dose not given beside the values. The note with it: 1 h.
Data set [5] can be described thus: Induction of ascorbic acid oxidation preincubated for 3 mins in presence of Cu2++. It counts as physicochemical. Details: concentration or dose not given beside the values. The note with it: 0.05 h.
Data set [6] can be described thus: Antioxidant activity assessed as ABTS radical scavenging activity after 30 mins in absence of Cu2+. It counts as functional.
A short description of data set [7]: Induction of ascorbic acid oxidation preincubated for 30 mins in presence of Cu2++. The arrangement: concentration or dose not given beside the values. It counts as physicochemical. The settings on record: 0.5 h.
The test system of data set [8] is Radical scavenging activity. Description: Antioxidant activity assessed as DPPH radical scavenging activity after 40 mins in absence of Cu2+. Format: functional.
Data set [9] can be described thus: Effect on CU2+-mediated superoxide-dependent lucigenin reduction by chemiluminescence assay at 10 to 30 uM. It counts as physicochemical.
Data set [10] can be described thus: Antioxidant activity assessed as ABTS radical scavenging activity at 4 uM after 3 mins in presence of Cu2+. Format: functional.
Data set [11] in a line: Antioxidant activity assessed as reducing capacity of Iodine solution at 0.25mM after 30 mins in presence of Cu2++. Details: scale not given: the % may be the effect or the level left. Format: functional.
Data set [12] in a line: Effect on CU2+-mediated superoxide-dependent cytochrome c reduction at 10 to 30 uM. Format: physicochemical.
Data set [13] in a line: Antioxidant activity assessed as ABTS radical scavenging activity at 4 uM after 30 mins in presence of Cu2++. Format: functional.
Data set [14] is described as follows: Induction of ascorbic acid oxidation preincubated for 300 mins in presence of Cu2++. It counts as physicochemical. Details: concentration or dose not given beside the values. The note with it: 5 h.
A short description of data set [15]: Antioxidant activity assessed as reducing capacity of Iodine solution at 0.25 mM after 60 mins in presence of Cu2++. Format: functional.
Data set [16] in a line: Antioxidant activity assessed as reducing capacity of DTNB at 20 uM after 60 mins in presence of Cu2++. It counts as functional.
Data set [17] is described as follows: Antioxidant activity assessed as reducing capacity of Iodine solution at 0.25 mM after 120 mins in presence of Cu2++. It counts as functional.

Calls of active or inactive are those of the source. The calls are words filed in the database; no cut-off is given here.

Consider `N[C@@H](CCS)C(=O)O` [L-HOMOCYSTEINE], for which the outcome in [1] and in [10] was Active. The Activity in data set [2] was 72%; in data set [3], 40%; in data set [4] it was 86.1%; in [5], 81.1%; in [6], “Dose-dependent effect”; in data set [7], 84.1%. The Activity entry in data set [8] was “Dose-dependent effect”; in data set [9], “Active”; in data set [11] it was 30%; in data set [12], “Active”; in data set [13], 31%; in [14], 85.3%.

For `N[C@@H](CCC(=O)N[C@@H](CS)C(=O)NCC(=O)O)C(=O)O` [GLUTATHIONE], the outcome in data set [1] and in [10] was Active. Also, the Activity in data set [2] is 76%; in data set [3], 36%; in [4], 84.2%; in [5], 81.3%; in data set [6], “Dose-dependent effect”; in data set [7] it was 83.2%. In addition, the Activity entry in data set [8] was “Dose-dependent effect”; in data set [9], “Active”; in data set [11], 31%; in data set [12], “Active”; in [13], 55%; in data set [14], 85.4%.

Turning to `N[C@@H](CCC(=O)N[C@@H](CS)C(=O)O)C(=O)O`, the outcome in data set [1] and in [10] was Active. The Activity is 54% in data set [2]; 26% in [3]; 89.6% in data set [4]; 81.4% in data set [5]; “Dose-dependent effect” in data set [6]; 87.4% in data set [7]. For the same molecule, the Activity result is “Dose-dependent effect” in data set [8]; 24% in data set [11]; “Active” in [12]; 29% in [13]; 97.6% in data set [14].

For the molecule `N[C@@H](CS)C(=O)O` [CYSTEINE], the outcome in data set [1] and in [10] was Active. Also, the Activity was 92% in [2]; 24% in data set [3]; 80.35% in data set [4]; 74.35% in [5]; “Dose-dependent effect” in [6]; 77.34% in data set [7]. Also, the Activity result in [8] was “Dose-dependent effect”; in data set [11] it was 23%; in data set [12], “Active”; in data set [13], 44%; in data set [14], 80.36%.

For the molecule `N[C@@H](CS)C(=O)NCC(=O)O`, the outcome in data set [1], in [15], in data set [10] and in data set [16] was Active. Further, the Activity was 88% in data set [2]; 0% in data set [3]; 94.31% in data set [4]; 79.8% in [5]; “Dose-dependent effect” in data set [6]; 92.28% in [7]. Also, the Activity entry in [8] was “Dose-dependent effect”; in data set [9], “Active”; in [11] it was 20%; in data set [12], “Active”; in data set [13] it was 33%; in [14], 94.33%. The outcome in data set [17] was inactive.
